Drawing on US11851440B2, “Modulators of eukaryotic initiation factor 2B, compositions and methods” (Denali Therapeutics Inc., priority 2017, dated 2023), this text covers IC50 for 35 molecules.

In the experiment the test system is ISR pathway (ATF4 translation). As to the kind of experiment: ATF4 Nano Luciferase reporter integrated stress response (ISR) assay in H4 ATF4-NLuc cells. The following applies: compound 30 minutes, then 50 um sodium arsenite for 6 hours, luminescence readout.
Setting [1] is: Homo sapiens, read-out: Activity (IC50), H4 ATF4-NLuc (clone 17) cells.
Setting [2] is: Homo sapiens, H4 ATF4-NLuc (clone 17) cells.
The mark [3] stands for this setting: read-out: Activity (IC50), H4 ATF4-NLuc (clone 17) cells.

Like-named read-outs stand apart in the source and are kept apart here. Where only a bound is given, the exact number is not on record here.

As to `O=C(COc1ccc(Cl)c(F)c1)NC12CC(c3nnc(COC(F)(F)F)o3)(C1)C2` [Example 45, 2-(4-chloro-3-fluoro-phenoxy)-N-[1-[5-(trifluoromethoxymethyl)-1,3,4-oxadiazol-2-yl]-3-bicyclo[1.1.1]pentanyl]acetamide], the IC50 under setting [1] is under 1000 nM.
The same measure, in the same setting: under `O=C(COC1CCC1)NC12CC(c3nnc(COc4ccc(Cl)c(F)c4)o3)(C1)C2` [Example 46] stands under 1000 nM; under `O=C(COc1ccc(Cl)c(F)c1)NC12CC(c3ncc(C4CCC4)o3)(C1)C2` [Example 47], under 1000 nM.
The same measure, in the same setting: under `O=C(COc1ccc(Cl)c(F)c1)NC12CC(n3cnc(CC4CCC4)c3)(C1)C2` [Example 48] stands under 1000 nM.
For the molecule `O=C(CO[C@H]1C[C@@H](OC(F)(F)F)C1)NC12CC(c3nnc([C@H]4C[C@@H](OC(F)(F)F)C4)o3)(C1)C2` [Example 50], the IC50 under setting [1] was under 1000 nM.
Regarding `O=C(COc1ccc(Cl)c(F)c1)NC12CC(c3nnc([C@H]4C[C@@H](OC(F)F)C4)o3)(C1)C2` [Example 51], the IC50 was 13.7 nM under setting [2] and under 1000 nM under setting [1].
For the molecule `O=C(CO[C@H]1C[C@@H](OC(F)(F)F)C1)NC12CC(n3cnc(C4CC(OC(F)(F)F)C4)c3)(C1)C2` (stereo partly shown) [Example 52], the IC50 under setting [1] is under 1000 nM.
On to `O=C(COc1ccc(Cl)c(F)c1)NC12CC(c3nnc(CO[C@H]4C[C@@H](OC(F)(F)F)C4)o3)(C1)C2` [Example 53], for which, under setting [1], the IC50 is under 1000 nM.
The same measure, in the same setting: under `O=C(COc1ccc(Cl)c(F)c1)NC12CC(c3nnc(CCOC(F)(F)F)o3)(C1)C2` [Example 55] stands under 1000 nM.
With `O=C(CCc1ccc(Cl)cn1)NC12CC(c3nnc([C@H]4C[C@@H](OC(F)(F)F)C4)o3)(C1)C2` [Example 56], the IC50 under setting [1] is 1000 to 10000 nM.
Same read-out and setting: then `O=C(COc1ccc(Cl)c(F)c1)NC12CC(c3cn(C4CC(O)C4)nn3)(C1)C2` (stereo not shown) [Example 57], with 1000 to 10000 nM; and `O=C(COc1ccc(Cl)c(F)c1)NC12CC(c3cn(Cc4ccccc4)nn3)(C1)C2` [Example 58], with under 1000 nM.
In the case of `O=C(COc1ccc(Cl)c(F)c1)NC12CC(C3CN(C4CCC4)C(=O)O3)(C1)C2` (stereo not shown) [Example 59], under setting [3], the IC50 lay within 1000 to 10000 nM.
As to `O=C(COc1ccc(Cl)c(F)c1)NC12CC(C3CN(CC4CCC4)C(=O)O3)(C1)C2` (stereo not shown) [Example 60], the IC50 under setting [3] is under 1000 nM.
With `O=C(COc1ccc(Cl)c(F)c1)NC12CC(n3cnc([C@H]4C[C@@H](OC(F)(F)F)C4)c3)(C1)C2` [Example 61, 2-(4-chloro-3-fluoro-phenoxy)-N-[3-[4-[3-cis-(trifluoromethoxy)cyclobutyl]imidazol-1-yl]-1-bicyclo[1.1.1]pentanyl]acetamide], the IC50 under setting [2] was determined as 1.9 nM and the IC50 under setting [1] is under 1000 nM.
As for `O=C(COc1ccc(Cl)c(F)c1)NC12CC(n3cnc([C@H]4C[C@H](OC(F)(F)F)C4)c3)(C1)C2` [Example 62, 2-(4-chloro-3-fluoro-phenoxy)-N-[3-[4-[3-trans-(trifluoromethoxy)cyclobutyl]imidazol-1-yl]-1-bicyclo[1.1.1]pentanyl]acetamide], under setting [1], the IC50 is under 1000 nM.
Same read-out and setting: then `O=C(CO[C@H]1C[C@@H](OC(F)(F)F)C1)NC12CC(n3cnc([C@H]4C[C@@H](OC(F)(F)F)C4)c3)(C1)C2` [Example 63, 2-[3-cis-(trifluoromethoxy)cyclobutoxy]-N-[3-[4-[3-cis-(trifluoromethoxy)cyclobutyl]imidazol-1-yl]-1-bicyclo[1.1.1]pentanyl]acetamide], with under 1000 nM.
Same read-out and setting: under `O=C(COc1ccc(Cl)c(F)c1)NC12CC(c3cn([C@H]4C[C@H](OC(F)(F)F)C4)nn3)(C1)C2` [Example 64, 2-(4-chloro-3-fluoro-phenoxy)-N-[3-[1-[3-trans-(trifluoromethoxy)cyclobutyl]triazol-4-yl]-1-bicyclo[1.1.1]pentanyl]acetamide] stands under 1000 nM; under `O=C(COc1ccc(Cl)c(F)c1)NC12CC(c3cn([C@H]4C[C@@H](OC(F)(F)F)C4)nn3)(C1)C2` [Example 65, 2-(4-chloro-3-fluoro-phenoxy)-N-[3-[1-[3-cis-(trifluoromethoxy)cyclobutyl]triazol-4-yl]-1-bicyclo[1.1.1]pentanyl]acetamide], under 1000 nM; under `O=C(COc1ccc(Cl)c(F)c1)NC12CC(n3cnc(C4CN(CC(F)(F)F)C4)c3)(C1)C2` [Example 67, 2-(4-chloro-3-fluoro-phenoxy)-N-[3-[4-[1-(2,2,2-trifluoroethyl)azetidin-3-yl]imidazol-1-yl]-1-bicyclo[1.1.1]pentanyl]acetamide], under 1000 nM.
The same measure, in the same setting: under `O=C(COc1ccc(Cl)cc1)NC12CC(n3cnc([C@H]4C[C@@H](OC(F)(F)F)C4)c3)(C1)C2` [Example 68, 2-(4-chlorophenoxy)-N-[3-[4-[3-cis-(trifluoromethoxy)cyclobutyl]imidazol-1-yl]-1-bicyclo[1.1.1]pentanyl]acetamide] stands under 1000 nM; under `O=C(COc1ccc(Cl)cc1)NC12CC(n3cnc([C@H]4C[C@H](OC(F)(F)F)C4)c3)(C1)C2` [Example 69, 2-(4-chlorophenoxy)-N-[3-[4-[3-trans-(trifluoromethoxy)cyclobutyl]imidazol-1-yl]-1-bicyclo[1.1.1]pentanyl]acetamide], under 1000 nM; under `O=C(COc1ccc(F)cc1)NC12CC(c3nnc([C@H]4C[C@@H](OC(F)(F)F)C4)o3)(C1)C2` [Example 71, 2-(4-fluorophenoxy)-N-[3-[5-[3-cis-(trifluoromethoxy)cyclobutyl]-1,3,4-oxadiazol-2-yl]-1-bicyclo[1.1.1]pentanyl]acetamide], under 1000 nM.
In the case of `O=C(COc1ccc(F)cc1)NC12CC(c3nnc([C@H]4C[C@H](OC(F)(F)F)C4)o3)(C1)C2` [Example 72, 2-(4-fluorophenoxy)-N-[3-[5-[3-trans-(trifluoromethoxy)cyclobutyl]-1,3,4-oxadiazol-2-yl]-1-bicyclo[1.1.1]pentanyl]acetamide], the IC50 under setting [1] was under 1000 nM.
Take `O=C(CO[C@H]1C[C@@H](OC(F)(F)F)C1)NC12CC(c3nnc(-c4cncc(F)c4)o3)(C1)C2` [Example 73, N-[1-[5-(5-fluoro-3-pyridyl)-1,3,4-oxadiazol-2-yl]-3-bicyclo[1.1.1]pentanyl]-2-[3-cis-(trifluoromethoxy)cyclobutoxy]acetamide]: the IC50 under setting [1] was in the range of 1000 to 10000 nM.
On the same count and under the same terms, under `C#CCN(C(=O)COc1ccc(Cl)cc1)C12CC(c3nnc([C@H]4C[C@@H](OC(F)(F)F)C4)o3)(C1)C2` [Example 74, 2-(4-chlorophenoxy)-N-prop-2-ynyl-N-[1-[5-[3-cis-(trifluoromethoxy)cyclobutyl]-1,3,4-oxadiazol-2-yl]-3-bicyclo[1.1.1]pentanyl]acetamide] stands under 1000 nM; under `O=C(CC[C@H]1C[C@@H](OC(F)(F)F)C1)NC12CC(c3nnc(C4CC(OC(F)(F)F)C4)o3)(C1)C2` (stereo partly drawn) [Example 75, 3-[3-cis-(trifluoromethoxy)cyclobutyl]-N-[3-[5-[3-cis-(trifluoromethoxy)cyclobutyl]-1,3,4-oxadiazol-2-yl]-1-bicyclo[1.1.1]pentanyl]propanamide], 1000 to 10000 nM; under `O=C(NC12CC(c3nnc([C@H]4C[C@@H](OC(F)(F)F)C4)o3)(C1)C2)C1Cc2cc(Cl)ccc2O1` (stereo partly drawn) [Example 76, 5-chloro-N-[3-[5-[3-cis-(trifluoromethoxy)cyclobutyl]-1,3,4-oxadiazol-2-yl]-1-bicyclo[1.1.1]pentanyl]-2,3-dihydrobenzofuran-2-carboxamide], under 1000 nM.
Still for that read-out and setting: then `O=C(CO[C@H]1C[C@@H](OC(F)(F)F)C1)NC12CC(c3cn(-c4ccc(Cl)c(F)c4)nn3)(C1)C2` [Example 77, N-[3-[1-(4-chloro-3-fluoro-phenyl)triazol-4-yl]-1-bicyclo[1.1.1]pentanyl]-2-[3-cis-(trifluoromethoxy)cyclobutoxy]acetamide], with under 1000 nM.
On the same count and under the same terms, under `O=C(CO[C@H]1C[C@@H](OC(F)(F)F)C1)NC12CC(c3cnn(-c4ccc(Cl)c(F)c4)n3)(C1)C2` [Example 78, N-[3-[2-(4-chloro-3-fluoro-phenyl)triazol-4-yl]-1-bicyclo[1.1.1]pentanyl]-2-[3-cis-(trifluoromethoxy)cyclobutoxy]acetamide] stands under 1000 nM.
Consider `O=C(COc1ccc(Cl)c(F)c1)NC12CC(c3cnn([C@H]4C[C@@H](OC(F)(F)F)C4)n3)(C1)C2` [Example 79, 2-(4-chloro-3-fluoro-phenoxy)-N-[3-[2-[3-cis-(trifluoromethoxy)cyclobutyl]triazol-4-yl]-1-bicyclo[1.1.1]pentanyl]acetamide], for which the IC50 under setting [1] was under 1000 nM.
On the same count and under the same terms, then `O=C(COC1CC2C(C1)C2(F)F)NC12CC(c3nnc([C@H]4C[C@@H](OC(F)(F)F)C4)o3)(C1)C2` (stereo partly drawn) [Example 83, 2-[(6,6-difluoro-3-bicyclo[3.1.0]hexanyl)oxy]-N-[3-[5-[3-cis-(trifluoromethoxy)cyclobutyl]-1,3,4-oxadiazol-2-yl]-1-bicyclo[1.1.1]pentanyl]acetamide], with 1000 to 10000 nM; and `O=C(COc1ccc(Cl)cc1)NC12CC(c3nnc([C@H]4C[C@@H](COC(F)(F)F)C4)o3)(C1)C2` [Example 86, 2-(4-chlorophenoxy)-N-[3-[5-[3-cis-(trifluoromethoxymethyl)cyclobutyl]-1,3,4-oxadiazol-2-yl]-1-bicyclo[1.1.1]pentanyl]acetamide], with under 1000 nM.
In the case of `O=C(COc1ccc(Cl)cc1)NC12CC(c3nnc([C@H]4C[C@H](COC(F)(F)F)C4)o3)(C1)C2` [Example 87, 2-(4-chlorophenoxy)-N-[3-[5-[3-trans-(trifluoromethoxymethyl)cyclobutyl]-1,3,4-oxadiazol-2-yl]-1-bicyclo[1.1.1]pentanyl]acetamide], the IC50 under setting [3] was under 1000 nM.
Consider `O=C(NC12CC(c3nnc([C@H]4C[C@@H](OC(F)(F)F)C4)o3)(C1)C2)OC[C@H]1C[C@@H](OC(F)(F)F)C1` [Example 88, [3-cis-(trifluoromethoxy)cyclobutyl]methyl N-[3-[5-[3-cis-(trifluoromethoxy)cyclobutyl]-1,3,4-oxadiazol-2-yl]-1-bicyclo[1.1.1]pentanyl]carbamate], for which the IC50 under setting [1] is under 1000 nM.
